Measurements reported in patent US20250034592A1, “NEUROPEPTIDE-[…] AND METHODS FOR THE TREATMENT OF EPILEPSY” (CHARITE - UNIVERSIT[…], priority 2016, published 2025).

System: pDyn deficient mice
Assay: Seizure threshold, pentylenetetrazole (PTZ) tail-vein infusion
Assay type: in vivo
Settings: FIG. 6; for potency in seizure threshold test: compared with Dyn B
Text: Pentylenetetrazole is an inhibitor of GABAA receptors and induces seizures upon injection into the tail vein. pDyn deficient animals display a reduce seizure threshold compared to wild-type mice. […] From this, we expect an early onset of the effect of gene therapy and a lower number of vectors needed per patient.
The seizure threshold is a measure for the susceptibility to develop seizures. The resistance against seizure-inducing agents or stimuli is used as readout in animals. Infusion of pentylenetetrazole, a GABAA receptor antagonist, into the tail vein of rodents is an accepted method to measure the seizure threshold. […] This can be rescued by kappa opioid receptors agonists.
Seizure threshold was determined by pentylenetetrazole (PTZ) (see FIG. 6) tail-vein infusion on freely moving pDyn deficient mice at a rate of 100 μl/min ([…] PTZ in saline, pH 7.4). […] The seizure threshold dose was calculated from the infused volume in relation to body weight. Dyn B or modified variants thereof were dissolved in DMSO and diluted to the final dosages in saline containing final concentrations of 10% DMSO, 3% Tween 80. 3 μl of peptide-solution were applied 30 min. before tail-vein infusion under mild sevoflurane anaesthesia into the cisterna magna. The following peptides were tested: Dyn B=SEQ ID No. 8, Dyn B G3A=SEQ ID 10 No. 11 wherein Z at position 3 is alanine, Dyn B G3A+Q8A=SEQ ID No. 11 wherein Z at position 3 is alanine and Z at position 8 of SEQ ID No. 11 is alanine, Dyn B Q8A=SEQ ID No. 11 wherein Z at position 8 is alanine.

Substance | seizure threshold (peptide applied into cisterna magna 30 min before) | potency in seizure threshold test
Dynorphin B [Dyn B, reference compound] | rescued | –
Dyn B G3A+Q8A: SEQ ID No. 11 wherein Z at position 3 is alanine and Z at position 8 is alanine (YGAFLRRAFKVVT; VARIANT 3 Any amino acid; VARIANT 8 Any amino acid; listed as Homo sapiens) | – | higher potency
Dyn B G3A: SEQ ID No. 11 (YGZFLRRZFKVVT) wherein Z at position 3 is alanine (YGAFLRRXFKVVT; VARIANT 3 Any amino acid; VARIANT 8 Any amino acid; listed as Homo sapiens) | – | higher potency
